Reference: patent US20210069295A1, “GALECTINS CONTROL MTOR IN RESPONSE TO ENDOMEMBRANE DAMAGE AND PROVIDE A MECHANISM AND TARGET FOR THE TREATMENT OF AUTOPHAGY-RELATED DISEASES” (STC. UNM, priority 2017, published 2021)
Peptide text beside a SMILES is read from it.

Assays:
mTOR, Raptor, RagA, p14 = assay: APEX2 proximity biotinylation with streptavidin enrichment and immunoblotting in HEK293T cells; type: cell-based; conditions: for mTOR, Raptor and RagA found in the proximity of the galectin: APEX2-galectin fusions
Protocol: (A) Analysis of the puncta formation of galectins in response to GPN. HeLa cells overexpressing YFP-fused with the indicated galectins were treated with 100 μM GPN or without (Ctrl) in full medium for 1 h and galectin puncta were quantified by HC. […] White masks, algorithm defined cell boundaries (primary objects); green masks, computer-identified galectins puncta (target objects). Data, means±SEM, n≥3 independent experiments (500 primary objects counted per well; ≥5 wells/sample per each experiment); *p<0.05, **p<0.01, † p≥0.05, ANOVA. (B) Immunoprecipitation analysis of the interactions between galectins and mTOR or RagA GTPase. HEK293T cells overexpressing FLAG-tagged galectins were subjected to anti-FLAG immunoprecipitation followed by immunoblotting for endogenous mTOR or RagA. (C) Immunoprecipitation analysis of interactions between Gal8 and mTOR protein complexes in response to GPN treatment. THP-1 cells not treated or treated with 100 μM GPN in full medium for 1 h were subjected to immunoprecipitation with anti-Gal8 antibody, followed by immunoblotting for endogenous RagA, p14, mTOR or Raptor. (D) Analysis of the proximity of Gal8 to mTOR and other proteins in mTOR complexes in response to GPN. Biotinylated proteins from HEK293T cell expressing APEX2-vector or APEX2-Gal8, after GPN and biotin phenol (BP) treatment were affinity-enriched by binding to streptavidin-beads, and samples were analyzed by immunoblotting analysis for endogenous RagA, p14, mTOR or Raptor. Data, means±SEM, (n=3), **p<0.01, ANOVA. (E) Immunoprecipitation analysis of the interactions between Gal8 and RagA GTPase and its mutants. Lysates of HEK293T cells overexpressing FLAG-Gal8 and HA-tagged RagA proteins (RagAWT, RagAT21L or RagAQ66L) were subjected to anti-FLAG immunoprecipitation, followed by immunoblotting for HA-tagged RagA proteins. (F) Immunoprecipitation analysis of the interactions between Gal8 and RagC GTPase and its mutants. HEK293T cells overexpressing FLAG-Gal8 and HA-tagged RagC proteins (RagCWT, RagCS75L or RagCQ120L) lysates were subjected to anti-FLAG immunoprecipitation, followed by immunoblotting for HA-tagged RagC proteins.
HEK293T cells transfected with pJJiaDEST-APEX2 or pJJiaDEST-APEX2-Gal8 were incubated with 100 μM GPN (Cayman Chemicals) in full medium for 1 h (confluence of cells remained at 70-80%). Cells were next incubated in 500 μM biotin-phenol (AdipoGen) in full medium for the last 30 min of GPN incubation. A 1 min pulse with 1 mM H2O2 at room temperature was stopped with quenching buffer (10 mM sodium ascorbate, 10 mM sodium azide and 5 mM Trolox in Dulbecco's Phosphate Buffered Saline (DPBS)). All samples were washed twice with quenching buffer, and twice with DPBS.
For immunoblotting analysis, cell pellets were lysed with 500 μL ice-cold RIPA lysis buffer (ThermoFisher Scientific) with protease inhibitor cocktail (Roche), 1 mM PMSF (sigma), 10 mM sodium ascorbate, 10 mM sodium azide and 5 mM Trolox, gently pipetted and then the incubated for 30 min. The lysates were clarified by centrifugation at 13,000 rpm for 5 min, followed by measuring protein concentrations using a Pierce BCA Protein Assay kit, with freshly made bovine serum albumin (BSA) solutions as standards. Streptavidin-coated magnetic beads (ThermoFisher Scientific) were washed with RIPA lysis buffer. 3 mg of each sample was mixed with 100 μL of streptavidin beads. […] 15 μL of each sample was separated by SDS-PAGE and analyzed by Western blot using indicated antibodies.

[1] = tested on: LAMTOR1/p18 and Rag GTPases; assay: GST-pulldown assay with in vitro translated proteins; type: binding; conditions: 35S-methionine labeled
Protocol: (D) Immunoprecipitation analysis of interactions between Gal8 and Ragulator components p14, p18 and MP1. HEK293T cells overexpressing FLAG-tagged Gal8 were immunoprecipitated/collected with anti-FLAG (beads). Cell lysates and collected immune complexes were blotted for endogenous p18, p14, and MP1. (E)(i-ii) GST pulldown assay with in vitro translated Myc-tagged Gal8 or Gal9 and GST-tagged p18. GST-tagged p18 immobilized on Gluthatione sepharose beads were incubated with in vitro translated Myc-tagged Gal8 or Gal9 radiolabeled with 35S-methionine. Interactions were assessed by autoradiography. Data (% binding), means±SEM, n=3, † p≥0.05, **p<0.01, ANOVA. (F)(i-iv) GST pulldown assay with in vitro translated Myc-tagged Rag proteins and GST-tagged Gal8. […] Interactions were assessed by autoradiography. […]
GST and GST-tagged proteins were produced in SoluBL21 Competent E. coli (Genlantis, C700200) and purified by binding to Glutathionine Sepharose 4 Fast Flow beads (GE Healthcare, 17-5132-01) while myc-tagged proteins were in vitro translated using the TNT T7 Reticulocyte Lysate System (Promega, 14610) in the presence of ^35S-methionine. […] Radioactive signals were detected by Fujifilm bioimaging analyzer BAS-5000 and quantified with ScienceLab ImageGuage software (Fujifilm).

Row | direct binding to Ragulator (LAMTOR1/p18) and Rag GTPases in GST-pulldown [1] | Compound | proximity of Gal8 to Ragulator (LAMTOR2/p14) and RagA (mTOR, Raptor, RagA, p14; APEX2-Gal8 HEK293T, GPN) | proximity of Gal8 to mTOR and Raptor (mTOR, Raptor, RagA, p14; APEX2-Gal8 HEK293T, GPN) | mTOR, Raptor and RagA found in the proximity of the galectin (mTOR, Raptor, RagA, p14)
1 |  | NCC(=O)N[C@@H](Cc1ccccc1)C(=O)Nc1ccc2ccccc2c1 [GPN, glycyl-L-phenylalanine 2-naphththylamide] (HELM PEPTIDE1{G.F.[c1ccc2cc(N[*:1])ccc2c1]}$$$$V2.0) | increased proximity | decreased proximity | 
2 | direct interactions | Gal8: protein of the galectin family encoded by the gene LGALS8; beta-galactoside-binding lectin |  |  | in the proximity
3 | did not show direct binding | Gal9: beta-galactoside-binding lectin protein of the galectin family |  |  | not in the proximity
